Source: article PMC8699473, “An Easily Expandable Multi-Drug LC-MS Assay for the Simultaneous Quantification of 57 Oral Antitumor Drugs in Human Plasma” (Cancers, 2021)

What was measured:
[1] = Freeze-thaw stability in spiked pooled human plasma; format: physicochemical
[2] = Autosampler stability of ready for injection samples; format: physicochemical, human
[3] = Long-term stability in spiked pooled human plasma
[4] = Short-term stability in spiked pooled human plasma (bench-top, 4 °C, 56 °C)
[5] = Plasma concentrations in patients on oral antitumor therapy (LC-MS); format: in vivo, human; conditions: 14 mg/day, 24 h, ±4 h of trough level: yes
From the text: The liquid chromatography-mass spectrometer system consisted of a Thermo Scientific Dionex UltiMate^TM 3000 with an integrated and temperature controlled autosampler (Thermo Fisher Scientific, Dreieich, Germany). An Acquity UPLC® BEH C18 column (2.1 × 100 mm, 1.7 µm; Waters, Milford, CT, USA) equipped with an Acquity UPLC® BEH C18 VanGuard^TM Pre-Column (2.1 × 5 mm, 1.7 µm; Waters, Milford, CT, USA) was used for chromatographic separation. The Q-Exactive^TM Focus mass spectrometer (MS) was hyphenated with a heated electrospray ionization (HESI) source (both from Thermo Fisher Scientific, Dreieich, Germany).
Chromatographic separation was achieved using a gradient elution with water containing 0.5% (v/v) FA (eluent A) and MeOH with 0.1% (v/v) FA (eluent B). The injection volume was 5 µL. The gradient program is shown in Supplement Table S2. The flow rate was 0.5 mL/min with a total run time of 15 min. The column heater was maintained at 50 °C and the autosampler temperature was 4 °C.
The following MS and HESI settings were maintained for all analyses: Sheath gas, auxiliary gas, and sweep gas flow rates were set to 60, 20, and 0, respectively. The spray voltage was 4000 V. Both capillary and auxiliary gas heater temperatures were set to 400 °C. High-purity nitrogen gas was used for the HESI source gases and for the bath gas of the C-trap. […] The HESI source was configured in positive mode for ionization.
The stock solutions were stored in glass vials at −80 °C. Aliquots of all stock solutions were combined in ACN (volumes of individual stock solution solvents are negligible) to obtain a standard solution of all analytes with an individual concentration of 200% of the respective trough level (cmin). Eight individual working standards were prepared by stepwise dilution of this standard solution with concentrations from 10 to 200% cmin (shown in Supplement Table S3). Furthermore, the four individual IS stock solutions were combined and diluted to 50 ng/mL with ACN. Calibration and validation standards were prepared by spiking 50 µL pooled human plasma with 10 µL of the respective working solution. Next, 250 µL IS solution (50 ng/mL in ACN) were added and vortexed vigorously. […] Then, 100 µL supernatant were transferred to 300 µL HPLC insert glass vials and diluted with 100 µL eluent (90% A/10% B). For blank samples, 50 µL pooled human plasma were combined with 10 µL ACN (instead of working solution) and prepared as described above. The calibration and validation standards were freshly prepared before every run. Patient plasma samples were prepared as calibration and validation standards (no additional processing step necessary), except for adding 10 µL ACN instead of 10 µL working standard. Before sample preparation, the frozen plasma samples were thawed in absence of light at 4 °C.
Blood samples were collected over the entire dosing interval from patients treated with an oral anticancer drug as listed in Supplement Table S4. […] A maximum of two samples at two different time points throughout the entire dosing interval were collected per patient. Treatment duration before collection was at least five half-lives (depending on the specific oral anticancer drug). The samples were collected in K3-EDTA tubes.
A total of 71 blood samples from 39 patients treated with 14 different oral anticancer drugs were collected (see Supplement Table S4 for details). All patients were recruited from independent outpatient clinics associated with the Comprehensive Cancer Center of the University Hospital Erlangen (CCC Erlangen-EMN). Of 71 blood samples, 41 were taken ±4 h of trough level (cmin).

SMILES: COc1cc2nccc(Oc3ccc(NC(=O)NC4CC4)c(Cl)c3)c2cc1C(N)=O [Lenvatinib]
- Freeze-Thaw Accuracy [%] ([1]; validation standard 2xLLOV): 102.5%
- Freeze-Thaw Accuracy [%] ([1]; validation standard LLOV): 111.6%
- Freeze-Thaw Accuracy [%] ([1]; validation standard MOV): 98.4%
- Freeze-Thaw Accuracy [%] ([1]; validation standard ULOV): 103.0%
- Autosampler (24h, 4°C) Accuracy [%] ([2]; validation standard 2xLLOV): 102.4%
- Autosampler (72h, 4°C) Accuracy [%] ([2]; validation standard 2xLLOV): 97.9%
- Autosampler (24h, 4°C) Accuracy [%] ([2]; validation standard LLOV): 110.0%
- Autosampler (72h, 4°C) Accuracy [%] ([2]; validation standard LLOV): 103.7%
- Autosampler (24h, 4°C) Accuracy [%] ([2]; validation standard MOV): 100.6%
- Autosampler (72h, 4°C) Accuracy [%] ([2]; validation standard MOV): 98.6%
- Autosampler (24h, 4°C) Accuracy [%] ([2]; validation standard ULOV): 102.6%
- Autosampler (72h, 4°C) Accuracy [%] ([2]; validation standard ULOV): 102.7%
- Long-term stability, 1 month, -20°C Accuracy [%] ([3]; validation standard 2xLLOV): 99.7%
- Long-term stability, 1 month, -80°C Accuracy [%] ([3]; validation standard 2xLLOV): 94.9%
- Long-term stability, 2 month, -20°C Accuracy [%] ([3]; validation standard 2xLLOV): 97.0%
- Long-term stability, 2 month, -80°C Accuracy [%] ([3]; validation standard 2xLLOV): 100.9%
- Long-term stability, 3 month, -20°C Accuracy [%] ([3]; validation standard 2xLLOV): 103.0%
- Long-term stability, 3 month, -80°C Accuracy [%] ([3]; validation standard 2xLLOV): 104.8%
- Long-term stability, 6 weeks, 4°C, without daylight Accuracy [%] ([3]; validation standard 2xLLOV): 105.2%
- Long-term stability, 1 month, -20°C Accuracy [%] ([3]; validation standard LLOV): 109.4%
- Long-term stability, 1 month, -80°C Accuracy [%] ([3]; validation standard LLOV): 107.0%
- Long-term stability, 2 month, -20°C Accuracy [%] ([3]; validation standard LLOV): 102.7%
- Long-term stability, 2 month, -80°C Accuracy [%] ([3]; validation standard LLOV): 108.7%
- Long-term stability, 3 month, -20°C Accuracy [%] ([3]; validation standard LLOV): 105.7%
- Long-term stability, 3 month, -80°C Accuracy [%] ([3]; validation standard LLOV): 110.3%
- Long-term stability, 6 weeks, 4°C, without daylight Accuracy [%] ([3]; validation standard LLOV): 127.4%
- Long-term stability, 1 month, -20°C Accuracy [%] ([3]; validation standard MOV): 95.8%
- Long-term stability, 1 month, -80°C Accuracy [%] ([3]; validation standard MOV): 94.5%
- Long-term stability, 2 month, -20°C Accuracy [%] ([3]; validation standard MOV): 98.2%
- Long-term stability, 2 month, -80°C Accuracy [%] ([3]; validation standard MOV): 97.2%
- Long-term stability, 3 month, -20°C Accuracy [%] ([3]; validation standard MOV): 99.7%
- Long-term stability, 3 month, -80°C Accuracy [%] ([3]; validation standard MOV): 100.5%
- Long-term stability, 6 weeks, 4°C, without daylight Accuracy [%] ([3]; validation standard MOV): 107.3%
- Long-term stability, 1 month, -20°C Accuracy [%] ([3]; validation standard ULOV): 96.4%
- Long-term stability, 1 month, -80°C Accuracy [%] ([3]; validation standard ULOV): 94.7%
- Long-term stability, 2 month, -20°C Accuracy [%] ([3]; validation standard ULOV): 101.7%
- Long-term stability, 2 month, -80°C Accuracy [%] ([3]; validation standard ULOV): 101.9%
- Long-term stability, 3 month, -20°C Accuracy [%] ([3]; validation standard ULOV): 98.3%
- Long-term stability, 3 month, -80°C Accuracy [%] ([3]; validation standard ULOV): 100.8%
- Long-term stability, 6 weeks, 4°C, without daylight Accuracy [%] ([3]; validation standard ULOV): 101.9%
- Short-time stability (1h, 56°C) Accuracy [%] ([4]; validation standard 2xLLOV): 56.5%
- Short-time stability (24h, 4°C, without daylight) Accuracy [%] ([4]; validation standard 2xLLOV): 103.4%
- Short-time stability (24h, RT, with daylight) Accuracy [%] ([4]; validation standard 2xLLOV): 96.8%
- Short-time stability (24h, RT, without daylight) Accuracy [%] ([4]; validation standard 2xLLOV): 94.6%
- Short-time stability (1h, 56°C) Accuracy [%] ([4]; validation standard LLOV): 62.9%
- Short-time stability (24h, 4°C, without daylight) Accuracy [%] ([4]; validation standard LLOV): 114.0%
- Short-time stability (24h, RT, with daylight) Accuracy [%] ([4]; validation standard LLOV): 106.4%
- Short-time stability (24h, RT, without daylight) Accuracy [%] ([4]; validation standard LLOV): 110.0%
- Short-time stability (1h, 56°C) Accuracy [%] ([4]; validation standard MOV): 46.6%
- Short-time stability (24h, 4°C, without daylight) Accuracy [%] ([4]; validation standard MOV): 95.9%
- Short-time stability (24h, RT, with daylight) Accuracy [%] ([4]; validation standard MOV): 93.9%
- Short-time stability (24h, RT, without daylight) Accuracy [%] ([4]; validation standard MOV): 94.3%
- Short-time stability (1h, 56°C) Accuracy [%] ([4]; validation standard ULOV): 40.6%
- Short-time stability (24h, 4°C, without daylight) Accuracy [%] ([4]; validation standard ULOV): 100.4%
- Short-time stability (24h, RT, with daylight) Accuracy [%] ([4]; validation standard ULOV): 102.7%
- Short-time stability (24h, RT, without daylight) Accuracy [%] ([4]; validation standard ULOV): 97.9%
- Measured plasma concentration [5]: 7.8 ng/mL
